Experimental data reported in patent US12569508B2, “Antimicrobial compositions and methods of use” (priority 2020, dated 2026).

Columns and labels:
[1] = tested on: PAO1 biofilm; test: In vitro MBEC antibiofilm assay; format: cell-based, P. aeruginosa; conditions: 5 μg/mL and 15 μg/mL TOB; 24 h
Experimental: The pegs on lid of the MBEC Assay® were submerged into the bacterial suspension, with column 12 containing sterile LB broth as a negative control. The plate was incubated at 37° C. on a rotating gyrator for 24 h to form biofilm on the pegs. After 24 h, the peg lid was removed and transferred into another 96-well microtiter plate containing sterile water for 30 seconds before being transferred into a treatment plate. The peg lid in the treatment plate was incubated for 24 h at 37° C. on the rotating gyrator. In the first study, the effect of concentration variation of TOB in MO-LCNPs was determined. […] The respective controls included unloaded formulations MO-LCNP and […] at equivalent concentrations and 0.9% NaCl. […] In the second study, the difference in effect of MO- and […] compared to liposomes containing TOB was determined. […] The final concentration of MO and PHY was 0.25 mg/mL. Liposomes were prepared as described above. In the third study, TOB, AMI and GEN as unformulated solutions and loaded in MO-LCNPs were compared as treatments against PAO1 biofilms in the MBEC Assay®. The concentration of each antibiotic was 6 μg/mL. […] In all four different studies, the treatments were incubated with the PAO1 biofilm grown on the MBEC Assay® on a rotating plate at 37° C. After 24 h incubation, the peg lid was transferred to a fresh plate containing sterilized water to inhibit treatments. […]

[2] = tested on: PAO1 biofilm on CFBE41o−; test: Chronic infection model CFBE41o− and PAO1: bacterial counts; format: cell-based, P. aeruginosa
Experimental: A chronic infection model was developed which cultures P. aeruginosa biofilm on top of the bronchial CF epithelium cells (CFBE41o−) at an air-liquid interface. It is a biologically relevant, 3D model that resembles the infected lungs of CF patients.
To assess the activity and toxicity or formulations, the CFBE41o− cell line was seeded on Transwell® inserts (0.05×10^6) at the liquid-liquid interface (500 μL apical and 1500 μL basolateral) on day 0. On day 3, the apical side media was removed, and the basolateral side was replaced with 500 μL of media. On day 7, the transepithelial electrical resistance (TEER) was measured through adding 500 μL to the apical chamber of one well and replacing the basolateral side with 1500 μL. The transferred biofilm model, described above, was employed to transfer the PAO1 biofilm on top of the CFBE41o− cell line in the apical compartment of the Transwells® on day 7. After 1 h incubation, the supernatant was removed as the biofilm has settled onto the cells.
Using the Aerogen® Pro (vibrating mesh nebuliser) and nebulisation chamber, the treatments were then nebulised on top of the biofilm and CFBE41o− cell layer. TOB as an unformulated solution or loaded in the MO-LCNPs were dosed at 10 μg, which was equivalent to 100 μL of 3.32 mg/mL for unformulated TOB and 2.50 mg/mL for MO-LCNPs loaded with TOB. The treatments were prepared by diluting the stock solution/LCNPs suspension to the required concentration in KRB buffer. Each time the nebuliser was first rinsed with KRB buffer and the Transwell® to be dosed was transfered to a clean 12 well plate. The treatment was nebulised following a 30 second deposition waiting time. After all treatments were dosed, the Transwells® were replaced to their original well that included fresh MEM media supplemented with 1% arginine (500 μL) and incubated for the required time at 37° C.
At the time points 24 h and 48 h, different read outs were obtained, including bacterial counts, viability of cells and barrier integrity. […] The plates were incubated for 18 h at 30° C. before the colonies of bacteria were counted.

[3] = tested on: P. aeruginosa (PAO1); test: C. elegans PAO1 infection model; format: in vivo, Caenorhabditis elegans
Experimental: For the infection study, an overnight culture of P. aeruginosa (PAO1) was diluted to an OD of 0.1 and 200 μL was seeded onto NGM (50 mM NaCl and 0.35% peptone) agar plates for 12 h at 37° C. After 12 h, the collected L4 stage nematodes were incubated on PAO1 seeded agar plates and allowed to feed on the bacteria for 6 h at 25° C. (Uccelletti D et al., 2010, Antimicrobial Agents and Chemotherapy 54(9), 3853-3860). Thereafter, the nematodes were removed from the agar and washed multiple times to remove PAO1 from the outside and the nematodes were split into groups of 20 in OGM medium. Besides the non-treated control, the infected nematodes were treated with various concentrations of tobramycin as an unformulated solution or loaded in MO-LCNPs.
In both the healthy and infected nematodes study, nematodes were assessed as live or dead under a bright field microscopy through either being curled and moving (live) or stiff and non-moving (dead) at 4 h, 24 h and 48 h post treatment. The percentage of live nematodes to the total number of nematodes in the samples was compared to healthy, non-treated controls to compute the % survival.
Following 24 h and 48 h, samples of the nematodes were taken and washed with M9 buffer containing 1 mM sodium azide and then 0.01 M PBS before being counted. The nematodes were then mechanically disrupted via vortex mixing in tubes with 200 mg of 1.0 mm silicon carbide beads (BioSpec Products, Bartleville, OK) for 10 mins (Richter K et al. 2017, Frontiers in Cellular and Infection Microbiology, 7: Article 280). The disrupted nematodes and bacterial suspensions were serial diluted and spot plated on Pseudomonas isolation agar for colony forming units (CFU) counting to determine the CFU per nematode.

[4] = aerosolised, CF patients; cited from earlier work

With `NC[C@H]1O[C@H](O[C@H]2[C@H](O)[C@@H](O[C@H]3O[C@H](CO)[C@@H](O)[C@H](N)[C@H]3O)[C@H](N)C[C@@H]2N)[C@H](N)C[C@@H]1O` [unformulated TOB, tobramycin] the “reduction of PAO1 load compared to the no treatment control” value [1] was 2 log, the P. aeruginosa remaining ([2]; 24 h after nebulisation, biofilm of 4×10^8 CFU/mL) was 7.4×10^3 CFU/mL and the P. aeruginosa remaining ([2]; 48 h, one nebulised dose) was 1.2×10^3 CFU/mL. For the same compound, the P. aeruginosa remaining ([2]; 48 h, two nebulised doses) was 5.4×10^1 CFU/mL, the “survival of infected nematodes” value ([3]; 24 h, 3 μg/mL) was 13% and the “survival of infected nematodes” value ([3]; 24 h, 6 μg/mL) was 65%. The “survival of infected nematodes” value ([3]; 24 h, 15 μg/mL) was 83%, the “bacteria killed compared to control” value ([3]; 24 h, 15 μg/mL and 60 μg/mL) was 1 log and the “survival of infected nematodes” value ([3]; 24 h, 60 μg/mL) was 87%. The PAO1 infection level ([3]; 48 h) was ~4 log, the “survival of infected nematodes” value ([3]; 48 h, 3 μg/mL) was 7% and the PAO1 surviving ([3]; 48 h, 60 μg/mL) was 2 log. The “average survival of infected nematodes” value ([3]; 48 h, 6-60 μg/mL) was 65% and the bioavailability [4] was 9.13%.
